In brackets after ≈: the same amount, converted by molar mass.
What was measured:
[1] = Inhibition of N-terminally tagged full-length HCV NS5B using biotinylated oligo(rU12), poly(rA) as template-primer assessed as incorporation of [3H]-UTP after 90 mins by Scintillation Proximity Assay; parameters: species or system Hepacivirus hominis
Genome polyprotein = Genome polyprotein (Hepatitis C virus genotype 1b (isolate BK) (HCV), UniProt P26663); test: Inhibition of HCV genotype 1b BK NS5B expressed in Escherichia coli BL21 (DE3) after 1 hr
Sequence of Genome polyprotein (P26663 2420-3010 limits assumed): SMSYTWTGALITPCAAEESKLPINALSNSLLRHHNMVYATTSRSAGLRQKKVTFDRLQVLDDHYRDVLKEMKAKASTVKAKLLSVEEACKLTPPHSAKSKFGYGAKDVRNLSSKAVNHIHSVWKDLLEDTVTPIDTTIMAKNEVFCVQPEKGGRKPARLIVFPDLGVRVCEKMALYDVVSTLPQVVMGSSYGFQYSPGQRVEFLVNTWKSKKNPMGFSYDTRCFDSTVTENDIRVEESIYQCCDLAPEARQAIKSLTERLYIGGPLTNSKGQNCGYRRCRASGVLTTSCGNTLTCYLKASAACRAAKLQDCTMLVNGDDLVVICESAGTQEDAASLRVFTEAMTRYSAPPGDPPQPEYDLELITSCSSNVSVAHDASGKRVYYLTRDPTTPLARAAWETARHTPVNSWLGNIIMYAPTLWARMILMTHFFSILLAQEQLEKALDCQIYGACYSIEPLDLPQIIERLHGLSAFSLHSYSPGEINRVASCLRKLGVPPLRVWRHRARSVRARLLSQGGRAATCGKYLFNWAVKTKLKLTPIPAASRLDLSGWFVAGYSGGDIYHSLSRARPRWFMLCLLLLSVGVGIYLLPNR

Hepatitis C virus [2] = test: Antiviral activity against HCV genotype 1b Con1 infected in human HuH7 cells assessed as inhibition of viral replication; assay type: functional, cell-based, Hepacivirus hominis; settings: genotype 1b Con1, Huh-7
Hepatitis C virus [3] = test: Antiviral activity against HCV assessed as inhibition of viral replication by cell-based assay; assay type: functional, organism-based, Hepacivirus hominis
[4] = Octanol-buffer distribution co-efficient, log D of the compound at pH 7.4 by shaking-flask method; assay type: physicochemical
[5] = Solubility of the compound in phosphate buffer at pH 7.2; assay type: physicochemical
Hepatitis C virus [6] = test: Antiviral activity against HCV infected in human HuH7 cells assessed as inhibition of viral replication after 72 hrs by RT-PCR analysis; assay type: functional, organism-based, Hepacivirus hominis; settings: Huh-7, 72 h
[7] = Inhibition of N-terminal hexa-histidine tagged full-length HCV genotype 1b NS5B expressed in baculovirus-infected cells using 5'-biotinylated oligo(rU12), poly(rA) as template-primer assessed as incorporation of [3H]-UTP after 90 mins by Scintillation Proximity Assay; parameters: species or system Hepatitis C virus subtype 1b
[8] = Inhibition of N-terminal hexa-histidine tagged HCV NS5B expressed in baculovirus infected insect cells using 12 nucleotide RNA oligo-uridylate primer and complementary poly-adenylate template assessed as incorporation of UMP-[5,6-3H] into the chain elongated from oligo-U primer by TopCount analysis; parameters: species or system Hepacivirus hominis

Work on O=C(O)COc1ccc2[nH]cc(C[C@H](NC(=O)c3ccc4c(c3)nc(-c3ccoc3)n4C3CCCCC3)C(=O)O)c2c1 yielded an IC50 [1] of 27 nM.
With CC(C)CNCc1c(C(=O)O)sc2c(C3CCCCC3)c(-c3ccccc3)n(CC(=O)N(C)C3CCN(C(C)C)C3)c12 (centres undefined) the IC50 (Genome polyprotein) was 11 nM and the EC50 (Hepatitis C virus [2]) was 510 nM.
Molecule O=C(O)/C=C/c1ccc(NC(=O)C2(NC(=O)c3ccc4c(c3)nc(-c3ccoc3)n4C3CCCCC3)CCCC2)cc1 has an EC50 (Hepatitis C virus [3]) of 550 nM.
CC(C)N1CCC(N(C)C(=O)Cn2c(-c3ccccc3)c(C3CCCCC3)c3sc(C(=O)O)cc32)C1 (centres undefined) gave an IC50 (Genome polyprotein) of 10 nM and an EC50 (Hepatitis C virus [2]) of 130 nM.
Molecule C[C@@H](NC(=O)c1ccc2c(c1)nc(-c1ccoc1)n2C1CCCCC1)C(=O)Nc1ccc(/C=C/C(=O)O)cc1 has a logD [4] of 2.2, a solubility [5] of 171 µM (≈ 90 µg/mL) and an EC50 (Hepatitis C virus [6]) of 6900 nM. The IC50 [1] was 130 nM.
CC(C)(NC(=O)c1ccc2c(c1)nc(-c1ccoc1)n2C1CCCCC1)C(=O)Nc1ccc(/C=C/C(=O)O)cc1 gave an IC50 [7] of 40 nM.
O=C(O)c1ccc2c(c1)nc(-c1ccoc1)n2C1CCCCC1 showed an IC50 [8] of 1600 nM.
Work on CC(C)N1CC[C@@H](N2CCn3c(c(C4CCCCC4)c4sc(C(=O)O)cc43)-c3ccccc3C2)C1 yielded an IC50 (Genome polyprotein) of 19 nM and an EC50 (Hepatitis C virus [2]) of 150 nM.
Work on O=C(O)c1ccc2c(C3CCCCC3)c(-c3ccccc3)n(CC(=O)N3CCOCC3)c2c1 yielded an EC50 (Hepatitis C virus [3]) of 800 nM.
COc1ccc(CCNC(=O)c2ccc3c(c2)nc(-c2ccccn2)n3C2CCCCC2)cc1OC gave an IC50 [8] of 12000 nM.
Molecule O=C(N[C@H](Cc1c[nH]c2ccc(O)cc12)c1cscn1)c1ccc2c(c1)nc(-c1ccoc1)n2C1CCCCC1 has an EC50 (Hepatitis C virus [6]) of 1700 nM and an IC50 [1] of 300 nM.
CN(C)C(=O)Cn1c(-c2ccccc2)c(C2CCCCC2)c2sc(C(=O)O)cc21 gave an IC50 (Genome polyprotein) of 58 nM.
